Literature values in patent publication US11103587B2, “Multiple oligonucleotide moieties on peptide carrier” (Genzyme Corporation, priority 2014, dated 2021).

Legend:
[1] = mice; cited from earlier work
[2] = test system: exon 23 of the mRNA encoding for dystrophin; details: mdx mouse, cited from earlier work

GGCCAAACCTCGGCTTACCTGAAAT (PMO backbone, chemistry not fully specified) [PMO23, PMO designed to skip exon 23 of the mRNA encoding for dystrophin]
amount administered without any noticeable toxic effects [1]: ≤ 250 mg/kg
skipping of exon 23 in cardiac muscle ([2]; cardiac muscle): does not effect exon 23 skipping in cardiac muscle
skipping of exon 23 in skeletal muscle ([2]; skeletal muscle): < 15%
